Reference: ChEMBL document CHEMBL3044841, “Synthesis and biological activities of Schiff bases of gabapentin with different aldehydes and ketones: a structureactivity relationship study” (Med Chem Res, 2012)
Converted amounts (≈) assume the structure as drawn.

Key:
[1] = tested on: Radical scavenging activity; assay: Antioxidant activity assessed as DPPH free radical scavenging activity after 30 min; type: functional
[2] = tested on: Radical scavenging activity; assay: Antioxidant activity assessed as DPPH free radical scavenging activity at 200 ug/ml after 30 min relative to control; type: functional
[3] = tested on: Radical scavenging activity; assay: Antioxidant activity assessed as DPPH free radical scavenging activity at 100 ug/ml after 30 min relative to control; type: functional
[4] = tested on: Radical scavenging activity; assay: Antioxidant activity assessed as DPPH free radical scavenging activity at 150 ug/ml after 30 min relative to control; type: functional
Rattus norvegicus [5] = assay: Neurotoxicity in Rattus norvegicus Wistar (rat) assessed as minimal motor impairment at 100 mg/kg, po after 0.5 hr by rotorod test; type: toxicity, organism-based; design: dose 100 mg/kg, route oral; settings: in vivo
Rattus norvegicus [6] = assay: Anticonvulsant activity in Rattus norvegicus Wistar (rat) assessed as protection against maximal electroshock-induced seizure at 100 mg/kg, po administered 30 min before electroshock measured for 2 min relative to control; type: functional
Rattus norvegicus [7] = assay: Neurotoxicity in Rattus norvegicus Wistar (rat) assessed as minimal motor impairment at 100 mg/kg, po after 2 hr by rotorod test relative to control; type: toxicity, organism-based; design: dose 100 mg/kg, route oral; settings: in vivo
Rattus norvegicus [8] = assay: Neurotoxicity in Rattus norvegicus Wistar (rat) assessed as minimal motor impairment at 100 mg/kg, po after 1 hr by rotorod test; type: toxicity, organism-based; design: dose 100 mg/kg, route oral; settings: in vivo
Rattus norvegicus [9] = assay: Neurotoxicity in Rattus norvegicus Wistar (rat) assessed as minimal motor impairment at 100 mg/kg, po after 4 hr by rotorod test; type: toxicity, organism-based; design: dose 100 mg/kg, route oral; settings: in vivo
Rattus norvegicus [10] = assay: Neurotoxicity in Rattus norvegicus Wistar (rat) assessed as minimal motor impairment at 100 mg/kg, po after 2 hr by rotorod test; type: toxicity, organism-based; design: dose 100 mg/kg, route oral; settings: in vivo

Row | SMILES | IC50 [1] | Activity [2] | Activity [3] | Activity [4] | Activity (Rattus norvegicus [5]) | Activity (Rattus norvegicus [6]) | Activity (Rattus norvegicus [7]) | Activity (Rattus norvegicus [8]) | Activity (Rattus norvegicus [9]) | Activity (Rattus norvegicus [10])
1 | COc1cc(/C=N/CC2(CC(=O)O)CCCCC2)ccc1O | 59.6 µg/mL (≈ 195 µM) | 78.2% | 57.2% | 64.9% | – | – | – | – | – | –
2 | COc1ccc(/C=N/CC2(CC(=O)O)CCCCC2)cc1 | 94.2 µg/mL (≈ 326 µM) | 69.5% | 49.6% | 59.8% | – | – | – | – | – | –
3 | O=C1NC(=O)C(c2ccccc2)(c2ccccc2)N1 [PHENYTOIN] | – | – | – | – | Non-toxic | 79.29% | – | – | – | –
4 | O=C(O)CC1(C/N=C/c2c(F)cccc2Cl)CCCCC1 | 104 µg/mL (≈ 334 µM) | 69.1% | 47.2% | 58% | – | – | – | – | – | –
5 | C/C=N/CC1(CC(=O)O)CCCCC1 | Not Active | 49.5% | 31.4% | 41% | – | – | – | – | – | –
6 | C/C(=N\CC1(CC(=O)O)CCCCC1)c1ccc2ccccc2c1 | Not Active | 48.4% | 28.5% | 37.2% | Non-toxic | 0.42% | 25% | Non-toxic | – | –
7 | O=C(O)CC1(C/N=C/c2ccccc2Cl)CCCCC1 | 119.4 µg/mL (≈ 406 µM) | 66.4% | 45.1% | 56.7% | – | – | – | – | – | –
8 | O=C(O)CC1(C/N=C/c2ccc(F)cc2)CCCCC1 | 130.5 µg/mL (≈ 471 µM) | 62.8% | 44.7% | 53.8% | – | – | – | – | – | –
9 | O=C(O)CC1(C/N=C/c2ccccc2O)CCCCC1 | 80.5 µg/mL (≈ 292 µM) | 71.3% | 51% | 60.6% | – | – | – | – | – | –
10 | CCOc1ccc(/C=N/CC2(CC(=O)O)CCCCC2)cc1 | 60.5 µg/mL (≈ 199 µM) | 74.5% | 55.6% | 66.4% | – | – | – | – | – | –
11 | C/C(=N\CC1(CC(=O)O)CCCCC1)c1cccc(C#N)c1 | Not Active | 49.8% | 30.6% | 41% | Non-toxic | 6.36% | 25% | Non-toxic | – | –
12 | O=C1O[C@H]([C@@H](O)CO)C(O)=C1O [ASCORBIC ACID] | 8.6 µg/mL (≈ 48.8 µM) | 99.3% | 74.1% | 86.4% | – | – | – | – | – | –
13 | C/C(=N\CC1(CC(=O)O)CCCCC1)c1ccccn1 | 194.8 µg/mL (≈ 710 µM) | 51.6% | 31.1% | 42.5% | Non-toxic | 66.45% | – | Non-toxic | Non-toxic | Non-toxic
14 | O=C(O)CC1(C/N=C/c2ccccn2)CCCCC1 | 151.2 µg/mL (≈ 581 µM) | 59.7% | 40% | 50.3% | – | – | – | – | – | –
15 | CCOc1ccc(/C(C)=N/CC2(CC(=O)O)CCCCC2)cc1 | 60.3 µg/mL (≈ 190 µM) | 74.6% | 55.8% | 66.7% | Non-toxic | 12.74% | 25% | Non-toxic | – | –
16 | C=NCC1(CC(=O)O)CCCCC1 | Not Active | 48.9% | 30.2% | 40.6% | – | – | – | – | – | –
17 | O=C(O)CC1(C/N=C/c2ccccc2)CCCCC1 | Not Active | 49.8% | 30.1% | 41.3% | – | – | – | – | – | –
18 | C/C(=N\CC1(CC(=O)O)CCCCC1)c1c[nH]c2ccccc12 | 175 µg/mL (≈ 560 µM) | 55.8% | 32.7% | 43.8% | Non-toxic | 24.63% | 25% | Non-toxic | – | Non-toxic
19 | C/C(=N\CC1(CC(=O)O)CCCCC1)c1cccnc1 | 198.2 µg/mL (≈ 722 µM) | 51% | 30.8% | 42.1% | Non-toxic | 65.61% | – | Non-toxic | Non-toxic | Non-toxic
